Test results reported in patent publication US11654132B2, “Methods for treating COVID-19” (priority 2020, dated 2023).
Like-named read-outs stand apart in the source and are kept apart here.

What was measured:
SARS-CoVid-2 infection = details: combined with azithromycin; cited from earlier work
[1] = in vivo; cited from earlier work
[2] = in vivo; cited from earlier work; remark: listed apart in the source
COVID-19 = details: mild to moderate COVID-19 at high risk of progressing to severe disease; cited from earlier work
SARS-CoV = details: in vitro; cited from earlier work
[3] = system: Lipopolysaccharide stimulated IL-1B production; details: ex-vivo; active metabolite; cited from earlier work
[4] = cited from earlier work; for in vivo activity: oral and/or intravenous administration, prodrug vs active form
CYP = details: cited from earlier work
[5] = NASH patients; cited from earlier work
chronic HCV = details: cited from earlier work
SARS-CoV-2 = details: human, in vivo; cited from earlier work
SARS = details: 400 mg and 100 mg added to ribavirin vs historical control; cited from earlier work
[6] = in vivo
IL-1B = details: cited from earlier work
IL-18 = details: cited from earlier work; for inhibition of IL-18: during the duration of the study
caspase-1 = target: T1, caspase-1 (Homo sapiens, UniProt P29466); details: healthy and disease states; cited from earlier work
T1 sequence (P29466 120-297 limits assumed): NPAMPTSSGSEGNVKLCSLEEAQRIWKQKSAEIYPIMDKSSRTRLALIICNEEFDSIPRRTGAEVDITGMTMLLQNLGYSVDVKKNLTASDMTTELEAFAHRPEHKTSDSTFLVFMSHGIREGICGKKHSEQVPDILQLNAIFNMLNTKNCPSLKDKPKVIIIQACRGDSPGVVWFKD
T1 sequence (P29466 317-404 limits assumed): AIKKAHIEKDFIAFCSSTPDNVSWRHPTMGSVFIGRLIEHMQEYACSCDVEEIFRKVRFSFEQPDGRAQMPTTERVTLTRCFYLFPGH

[7] = system: CD4 T-cell pyroptotic death in HIV-infected lymphoid tissues; details: dose-dependent; cited from earlier work
[8] = dogs at 2000 mg/kg/day; cited from earlier work
[9] = in vivo; cited from earlier work; remark: listed apart in the source
CYP3A4 = CYP3A4 (Homo sapiens, UniProt P08684); details: recombinant enzyme system; cited from earlier work
CYP3A4, sequence (P08684 whole entry): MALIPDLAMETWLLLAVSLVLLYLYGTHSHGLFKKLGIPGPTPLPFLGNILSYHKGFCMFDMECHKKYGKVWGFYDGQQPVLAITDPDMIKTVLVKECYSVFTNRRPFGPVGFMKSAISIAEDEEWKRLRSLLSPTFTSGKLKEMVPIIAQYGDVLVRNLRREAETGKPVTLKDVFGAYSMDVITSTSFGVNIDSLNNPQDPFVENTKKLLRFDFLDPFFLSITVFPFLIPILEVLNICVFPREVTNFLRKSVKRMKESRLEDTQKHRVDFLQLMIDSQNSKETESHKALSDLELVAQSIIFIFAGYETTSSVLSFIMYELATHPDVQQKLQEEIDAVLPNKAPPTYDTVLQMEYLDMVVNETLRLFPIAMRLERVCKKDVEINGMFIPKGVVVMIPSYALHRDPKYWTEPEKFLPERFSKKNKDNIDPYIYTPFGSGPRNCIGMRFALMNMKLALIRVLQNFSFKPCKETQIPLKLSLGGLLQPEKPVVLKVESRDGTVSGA

CCN(CCO)CCCC(C)Nc1ccnc2cc(Cl)ccc12 (centres unmarked) [Hydroxychloroquine]
viral loads vs control patients (SARS-CoVid-2 infection): Viral loads appeared to diminish faster

CCO[C@@H]1OC(=O)C[C@@H]1NC(=O)[C@@H]1CCCN2C(=O)CC[C@H](NC(=O)c3nccc4ccccc34)C(=O)N12 [Pralnacasan]
clinical trial outcome in rheumatoid arthritis and osteoarthritis [1]: amelioration of RA, but not | reason for termination in Phase IIb in RA [2]: liver toxicity in animals (102)

bamlanivimab: monoclonal antibody for COVID-19
efficacy (COVID-19): efficacious

casirivimab: monoclonal antibody for COVID-19
efficacy (COVID-19): efficacious

Cc1cccc(C)c1OCC(=O)N[C@@H](Cc1ccccc1)[C@@H](O)C[C@H](Cc1ccccc1)NC(=O)[C@H](C(C)C)N1CCCNC1=O [lopinavir]
activity against SARS-CoV (SARS-CoV): in vitro inhibitory activity

imdevimab: monoclonal antibody for COVID-19
efficacy (COVID-19): efficacious

CC(C)(C)C(NC(=O)c1ccc(N)c(Cl)c1)C(=O)N1CCCC1C(=O)NC(C=O)CC(=O)O (centres unmarked) [II]
concentration at which Lipopolysaccharide stimulated IL-1B production is 50% suppressed [3]: 0.8 µg/mL | bioavailability ([4]; active form): poor bioavailability | in vivo activity [4]: less than optimal in vivo activity | CYP-mediated metabolism as route of clearance (CYP; in vitro studies): not a major route of clearance

CC(C)[C@@]1(C(=O)N[C@H]2CC(=O)O[C@]2(O)CF)CC(c2nccc3ccccc23)=NO1 [Nivocasan]
ALT levels [5]: Reductions in ALT levels in NASH | reason for termination of Phase IIb (chronic HCV): significant laboratory abnormalities

lopinavir—ritonavir
clinical symptoms, mortality, viral loads vs standard of care alone (SARS-CoV-2): no improvement in clinical symptoms, mortality, or viral loads | risk of adverse clinical outcomes (ARDS or death) and viral load (SARS): reduced the risk of adverse clinical outcomes

CCO[C@@H]1OC(=O)C[C@@H]1NC(=O)[C@@H]1CCCN1C(=O)[C@@H](NC(=O)c1ccc(N)c(Cl)c1)C(C)(C)C [belnacasan]
dog dose estimated as multiple of the maximum dose in this study [6]: 10-25 times | suppression of IL-1B (IL-1B; single oral dose of 400 mg): 50% | suppression of IL-1B (IL-1B; single oral dose of 800 mg): 80% | suppression of IL-1B (IL-1B; single oral dose of 1600 mg): 80% | inhibition of IL-18 (IL-18; 900 mg TID): 60% | inhibition of IL-18 (IL-18; 1200 mg TID): 60% | inhibition of IL-18 (IL-18; 1800 mg TID): 60% | inhibition of IL-18 over 14 days as compared to placebo (IL-18; healthy controls): gradual but marked inhibition | in vivo activity [4]: better in vivo activity | effect of blocking caspase-1 (caspase-1): prevent production of IL-1β, IL-18, and pyroptosis | CD4 T-cell pyroptotic death [7]: Prevents CD4 T-cell | only preclinical finding on toxicity studies [8]: reduction of the heart rate | adverse effects reported in humans [9]: mild and mainly include headache, nausea, lethargy and dizziness | seizure [9]: reported in more than one patient | severity of adverse events (CTCAE) [9]: mild and of no consequence (grade 1 and 2 by CTCAE criteria) | CYP-mediated metabolism as route of clearance (CYP): not a major route of clearance | metabolism by CYP3A4 (CYP3A4): metabolized by CYP3A4
